Assay results published in patent publication US20260055126A1, “SMALL MOLECULE COMPOUNDS WITH PHOSPHORYLATED ARYL STRUCTURES AND USE THEREOF” (HANGZHOU PHECDAMED CO., LTD., priority 2022, published 2026).

Key:
Assay type in all cases: binding
Conditions in all cases: 10 μM TEAD protein, 50 μM test compound
[1] = target: recombinant TEAD4 protein (217-434, Uniprot ID: Q15561) (Homo sapiens (Human), UniProt Q15561); assay: Thermal shift assay (protein melting point curve), TEAD4
Protocol: (§1) The ability of the compounds to increase the melting point of purified recombinant TEAD1/2/3/4 proteins is tested using a thermal shift assay. The strength of the compound's binding to the protein and the selectivity of the compound's binding to the four TEAD subtypes are evaluated by calculating the melting point shift ΔTm−° C. […] Based on the Δ Tm value, the ability of the compound to bind to the TEAD protein is divided into four levels: ++++, +++, ++, +.
(§2) Test method of protein melting point curve: 10 μL of the protein melting point curve experimental system (10 μM TEAD protein, 50 μM test compound, SYPRO® orange (55692, sigma)) is prepared in a 384-well fluorescence quantitative PCR plate according to the following system, and reacted at 4° C. in the dark for 20 minutes. On-machine reaction: ABI QuantStudio Dx fluorescence quantitative PCR instrument; program: from 25° C. to 80° C., increasing the temperature at a rate of 0.05° C./s, and reading the fluorescence channel signal of the corresponding wavelength of SYPRO® orange every second.

[2] = target: recombinant TEAD3 protein (218-435, Uniprot ID: Q99594) (Homo sapiens (Human), UniProt Q99594); assay: Thermal shift assay (protein melting point curve), TEAD3
Chain of recombinant TEAD3 protein (218-435, Uniprot ID: Q99594) (Q99594 218-435): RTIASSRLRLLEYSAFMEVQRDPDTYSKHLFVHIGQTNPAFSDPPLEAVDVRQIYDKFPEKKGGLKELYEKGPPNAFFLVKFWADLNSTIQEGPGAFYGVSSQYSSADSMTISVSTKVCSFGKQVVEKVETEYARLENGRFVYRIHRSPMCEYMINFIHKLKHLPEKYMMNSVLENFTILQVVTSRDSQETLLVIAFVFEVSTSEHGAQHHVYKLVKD
Protocol: as §1, §2

[3] = system: recombinant TEAD1 protein (194-411, Uniprot ID: P28347); assay: Thermal shift assay (protein melting point curve), TEAD1; set-up: key to the marks not given beside the values
Protocol: as §1, §2

[4] = target: recombinant TEAD2 protein (218-447, Uniprot ID: Q15562) (Homo sapiens (Human), UniProt Q15562); assay: Thermal shift assay (protein melting point curve), TEAD2
Chain of recombinant TEAD2 protein (218-447, Uniprot ID: Q15562) (Q15562 218-447): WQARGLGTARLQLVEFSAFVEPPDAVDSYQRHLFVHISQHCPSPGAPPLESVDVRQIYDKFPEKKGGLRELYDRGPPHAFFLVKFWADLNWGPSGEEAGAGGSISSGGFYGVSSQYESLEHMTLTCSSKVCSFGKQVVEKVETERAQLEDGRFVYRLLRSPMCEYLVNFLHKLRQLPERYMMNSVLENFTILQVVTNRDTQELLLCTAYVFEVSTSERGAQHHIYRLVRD
Protocol: as §1, §2

Chain of recombinant TEAD4 protein (217-434, Uniprot ID: Q15561) (Q15561 217-434): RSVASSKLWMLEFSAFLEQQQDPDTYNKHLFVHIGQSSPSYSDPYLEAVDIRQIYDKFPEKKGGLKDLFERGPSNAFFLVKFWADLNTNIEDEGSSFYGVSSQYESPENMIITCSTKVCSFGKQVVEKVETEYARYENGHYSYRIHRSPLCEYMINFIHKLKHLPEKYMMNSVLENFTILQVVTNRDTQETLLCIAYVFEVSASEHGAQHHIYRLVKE

| Δ T m (TEAD4) [1] | Δ T m (TEAD3) [2] | Δ T m (TEAD2) [4] | Structure (SMILES) | Δ T m (TEAD1) [3] |
| --- | --- | --- | --- | --- |
| + | ++ | ++ | Cc1nnc(-c2cc(P(C)(C)=O)ccc2NCc2ccc(C(F)(F)F)cc2)o1 [Compound 4] | +++ |
| ++++ | ++ | +++ | Cc1nc(-c2cc(P(C)(C)=O)ccc2NCc2ccc(C(F)(F)F)cc2)no1 [Compound 5] | ++++ |
| +++ | ++ | ++ | CP(C)(=O)c1ccc(Nc2ccc(C(F)(F)F)cc2)c(-c2cnn(C3COC3)c2)c1 [Compound 15] | +++ |
| +++ | ++ | ++ | CP(C)(=O)c1ccc(Nc2ccc(C(F)(F)F)cc2)c(-c2cnn(CC3COC3)c2)c1 [Compound 16] | +++ |
| ++ | ++ | ++ | CP(C)(=O)c1ccc(OCc2ccc(C(F)(F)F)cc2)c(-c2nccc(OC3COC3)n2)c1 [Compound 20] | +++ |
| +++ | ++ | +++ | CP(C)(=O)c1ccc(Nc2ccc(C(F)(F)F)cc2)c(-c2cn(C3COC3)nn2)c1 [Compound 41] | +++ |
| ++ | ++ | + | CP(C)(=O)c1ccc(NCc2ccc(C(F)(F)F)cc2)c(-c2cn(C3COC3)cn2)c1 [Compound 47] | +++ |
| ++ | ++ | ++ | CP(C)(=O)c1ccc(NCc2ccc(C(F)(F)F)cc2)c(-c2cnn(C3COC3)c2)c1 [Compound 50] | ++ |
| ++ | ++ | ++ | CP(C)(=O)c1ccc(Nc2ccc(C(F)(F)F)cc2)c(-c2cnn(C3CCOCC3)c2)c1 [Compound 51] | ++ |
| ++ | + | ++ | CP(C)(=O)c1ccc(NCc2cccc(C(F)(F)F)c2)c(-c2nccc(OC3COC3)n2)c1 [Compound 52] | ++ |
| ++ | + | + | CP(C)(=O)c1ccc(NCc2ccc(C(F)(F)F)cc2)c(-c2nccc(N3CCC(O)C3)n2)c1 (stereo not shown) [Compound 54] | ++ |
| ++ | + | + | CP(C)(=O)c1ccc(NCc2ccc(C(F)(F)F)cc2)c(-c2ncn(C3CCOCC3)n2)c1 [Compound 55] | ++ |
| + | + | + | CP(C)(=O)c1ccc(Nc2ccc(C(F)(F)F)cc2)c(-c2nnc(COC3COC3)o2)c1 [Compound 57] | ++ |
| + | + | + | CP(C)(=O)c1ccc(NCc2ccc(C(F)(F)F)cc2)c(-n2cc(C3CCOCC3)cn2)c1 [Compound 58] | ++ |

The next lines start with the molecule.

| Structure (SMILES) | Δ T m (TEAD4) [1] | Δ T m (TEAD3) [2] | Δ T m (TEAD2) [4] | Δ T m (TEAD1) [3] |
| --- | --- | --- | --- | --- |
| CP(C)(=O)c1ccc(Nc2ccc(C(F)(F)F)cc2)c(-c2cn(Cc3ccccn3)cn2)c1 [Compound 2] | ++ | ++ | + | +++ |
| CP(C)(=O)c1ccc(Nc2ccc(C(F)(F)F)cc2)c(-c2nnn(Cc3ccccn3)n2)c1 [Compound 3] | ++ | + | + | +++ |
| CP(C)(=O)c1ccc(Nc2ccc(C(F)(F)F)cc2)c(-c2nnc(CO)o2)c1 [Compound 11] | ++ | + | ++ | +++ |
| CP(C)(=O)c1ccc(Nc2ccc(C(F)(F)F)cc2)c(-c2nnc(NCCO)o2)c1 [Compound 12] | + | + | + | ++ |
| CP(C)(=O)c1ccc(Nc2cccc(C(F)(F)F)c2)c(-c2nccc(OC3COC3)n2)c1 [Compound 13] | + | + | + | +++ |
| CP(C)(=O)c1ccc(Nc2ccc(C(F)(F)F)cc2)c(-c2nccc(OCCO)n2)c1 [Compound 19] | + | ++ | ++ | ++ |
| CC1OCCC1S(=O)(=O)c1csc(-c2cc(P(C)(C)=O)ccc2Nc2ccc(C(F)(F)F)cc2)n1 (stereo not shown) [Compound 23] | + | + | + | ++ |
| CP(C)(=O)c1ccc(Nc2ccc(C(F)(F)F)cc2)c(-c2ccn(C3CCOCC3)n2)c1 [Compound 25] | ++ | ++ | ++ | ++ |
| CP(C)(=O)c1ccc(Nc2ccc(Br)cc2)c(-c2nccc(OC3COC3)n2)c1 [Compound 26] | ++++ | + | ++ | ++++ |
| CP(C)(=O)c1ccc(Nc2ccc(C(F)(F)F)cc2)c(-n2cc(C3CCOCC3)cn2)c1 [Compound 33] | ++ | + | + | ++ |
| CP(C)(=O)c1ccc(Nc2ccc(C(F)(F)F)cc2)c(-c2ncn(C3CCOCC3)n2)c1 [Compound 34] | ++ | + | + | ++ |
| CP(C)(=O)c1ccc(Nc2ccc(C(F)(F)F)cc2)c(-c2nccc(OC3COC3)c2C#N)c1 [Compound 36] | +++ | + | + | ++ |
| CP(C)(=O)c1ccc(NC23CC(C(F)(F)F)(C2)C3)c(-c2nccc(OC3COC3)n2)c1 [Compound 37] | ++ | ++ | ++ | ++ |
| CP(C)(=O)c1ccc(NC23CCC(CC2)CC3)c(-c2nccc(OC3COC3)n2)c1 [Compound 38] | +++ | + | + | +++ |
| CP(C)(=O)c1cnc(Nc2ccc(C(F)(F)F)cc2)c(-c2nccc(OC3COC3)n2)c1 [Compound 39] | ++ | + | + | ++++ |
| CP(C)(=O)c1ccc(Nc2ccc(C(F)(F)F)cc2)c(-c2ncn3ccccc23)c1 [Compound 40] | ++ | ++ | ++ | ++ |
| CP(C)(=O)c1ccc(NC2CCc3cc(C(F)(F)F)ccc32)c(-c2ncccn2)c1 (stereo not shown) [Compound 42] | + | + | ++ | ++ |
| CP(C)(=O)c1ccc(NCc2cc(F)cc(F)c2)c(-c2ncccn2)c1 [Compound 44] | ++ | + | ++ | ++ |
| CP(C)(=O)c1ccc(NCC2CCC(C(F)(F)F)CC2)c(-c2ncccn2)c1 (stereo not shown) [Compound 46] | ++ | ++ | ++ | +++ |
| COCc1cccn(-c2cc(P(C)(C)=O)ccc2Nc2ccc(C(F)(F)F)cc2)c1=O [Compound 48] | + | + | + | ++ |
| Cc1nc(-c2cc(P(C)(C)=O)ccc2NCc2cccc(C(F)(F)F)c2)no1 [Compound 49] | ++ | ++ | + | +++ |
| COCc1cccn(-c2cc(P(C)(C)=O)ccc2NCc2ccc(C(F)(F)F)cc2)c1=O [Compound 59] | + | + | + | ++ |
| O=P1(c2ccc(Nc3ccc(C(F)(F)F)cc3)c(-c3nccc(OC4COC4)n3)c2)CCNCC1 [Compound 60] | ++ | + | + | +++ |
| CP(C)(=O)c1ccc(NCc2cc(F)cc(F)c2)c(-c2nccc(OC3COC3)n2)c1 [Compound 62] | + | + | + | ++ |
| Cn1cnc(-c2cc(P(C)(C)=O)ccc2NC2CCC(C(F)(F)F)CC2)c1 (stereo not shown) [Compound 63] | +++ | + | +++ | ++++ |
| CP(C)(=O)c1ccc(Nc2ccc(C(F)(F)F)cc2)c(-c2nccc(OC(F)F)n2)c1 [Compound 65] | ++ | + | ++ | +++ |
